Data: article PMC10245146, “CNS4 causes subtype‐specific changes in agonist efficacy and reversal potential of permeant cations in NMDA receptors” (Pharmacology Research & Perspectives, 2023)

Tests used:
Type in all cases: cell-based
[1] = target: T1, GluN1/2C NMDA receptors (UniProt P35439+Q14957); assay: TEVC agonist dose-response, Xenopus oocytes expressing 1/2C
T1 construct: host or cells: Xenopus oocytes (cRNA injection)
Description: (§1) NMDA receptor constructs: cDNA encoding the NMDA receptor1a subunit (GluN1a) was obtained from Dr. Nakanishi (Kyoto, Japan). cDNA encoding the GluN2B (pci_sepGluN2B), originally developed in the Malinow lab,[33] was purchased from Addgene (cat# 23998), Cambridge, MA. cDNA encoding the GluN2C and GluN2D were purchased from GenScript, New Jersey, USA. Mutated GluN1, 2A and 2B cDNA constructs capable of assembling as GluN1/2A/2B triheteromeric (1/2AB) receptors[34] were obtained from Dr. Paoletti (Laboratoire de Neurobiologie, CNRS). These constructs have been previously tested for 1/2AB receptor activity of GluN1/2A receptor‐selective potentiators.[35] […] Plasmids were linearized with NotI (GluN1a and all five GluN1 mutants) or Avrll (GluN2B), or BstB1 (GluN2C and GluN2D) and transcribed in vitro with T7 (GluN1a, GluN1/2A, GluN2B, GluN2C & GluN2D), and SP6 (GluN1 mutants) RNA polymerase using the mMessage mMachine transcription kits (Invitrogen by Thermo Fisher Scientific).
Stage IV frog oocytes were obtained from Xenopus‐I, (Ann Arbor, MI, USA). NMDA receptor subunit cRNAs were suspended in nuclease free sterile water. GluN1A, GluN2B, GluN2C, GluN2D and GluN1/2A/2B cRNAs were mixed in a ratio of 1:1–3. 50 nL of the final cRNA mixture was microinjected (40–70 ng total) into the oocyte cytoplasm. Oocytes were incubated in ND‐96 solution at 18°C prior to electrophysiological recordings (2–5 days).
(§2) Electrophysiological responses were measured using a standard two‐microelectrode voltage‐clamp workstation (Warner Instruments model OC‐725C) designed to provide a fast clamp of large cells. The recording buffer contained 116 mM NaCl, 2 mM KCl, 0.3 mM BaCl2, and 5 mM HEPES, pH 7.4. Response magnitude was determined in Xenopus oocytes expressing different NMDA receptor subunits (GluN1/2A, 1/2B, 1/2C, 1/2D, and 1/2A/2B) by the steady plateau response elicited by bath application of different agonist concentrations. […] All data points were obtained from the steady state currents unless stated otherwise. Dose–response relationships were fit to an appropriate curve‐fitting equation using GraphPad Prism‐7. Non‐linear regression was used to calculate EC50, IC50, and fold change or percentage maximal response. Curves were fit using the following equations as performed in the previous studies, [37]: Y=100/1+10^LogEC50−XorY=Bottom+Top−Bottom/1+10^LogEC50−X . Statistical significance was determined at the overall alpha level 0.05, using appropriate statistical methods as described in all figure captions. Technical and biological replicates are explicitly mentioned in each figure legend, as n = X (Y). X represents technical repeats (number of traces) and Y represents biological repeats (number of oocytes or HEK293T cells studied). […]

[2] = target: T2, GluN1/2A receptors (UniProt P35439+Q12879); assay: Whole-cell patch-clamp, HEK293T cells expressing recombinant GluN1/2A; settings: 100 μM CNS4 applied 4 s before and with 100 μM glutamate + 100 μM glycine; agonist alone −323.5 ± 82 pA; n = 4(3), p = .12
T2 construct: expressed in transfected cells; host or cells: HEK-293T
Protocol: Whole‐cell patch‐clamp electrophysiology studies were carried out in HEK‐293T cells expressing recombinant NMDA receptors that lack native functional NMDA receptors.[29], [30], [31] An equal quantity of (1 μg) cDNA for GluN1a, GluN2 subunits were co‐transfected 24‐48 h before patch‐clamp electrophysiology assay. […] Cells were carefully washed before performing experiments and were used for the electrophysiology experiments after 24 to 48 h incubation at 37°C with 5%CO2. The whole‐cell patch‐clamp electrophysiology assay was performed using semi‐automated patch‐clamp equipment, Port‐a‐Patch (Nanion Technologies GmbH). Following are the constituents of various solutions used for patch‐clamp electrophysiology: internal solution ([mM] NaCl 10, EGTA 20, CsF 110, HEPES 10), Mg‐free external (recording) solution ([mM] NaCl 140, KCl 4, CaCl2 2, HEPES 10, D‐GlucoseMonohydrate 5), and Mg‐free seal enhancer solution ([mM] NaCl 80, KCl 3, CaCl2 35, HEPES 10). Nanion NPC chips with […] resistance were used for the HEK‐293T cell recordings.
FIGURE 1 CNS4 sensitizes ambient concentration of agonists in GluN2 subunit dependent manner. […] Statistical significance was calculated from the Wilcoxon matched‐pairs signed rank test, except the comparison between 1/2A & 1/2AB CNS4 with no agonist data, which was done by unpaired t‐test. […]

[3] = target: T3, E781A_1/2A mutant receptor (UniProt P35439+Q12879, E781A); assay: TEVC glutamate dose-response, GluN1 E781A mutant with wild type GluN2A; parameters: Glutamate efficacy: unit not given here
T3 construct: expressed in transfected cells; host or cells: Xenopus oocytes (cRNA injection)
Description: as §1
as §2, with “captions.” for “captions. Technical and biological replicates are explicitly mentioned in each figure legend, as n = X (Y). X represents technical repeats (number of traces) and Y represents biological repeats (number of oocytes or HEK293T cells studied).”

T3 sequence (Q12879 23-1464, other chains not shown): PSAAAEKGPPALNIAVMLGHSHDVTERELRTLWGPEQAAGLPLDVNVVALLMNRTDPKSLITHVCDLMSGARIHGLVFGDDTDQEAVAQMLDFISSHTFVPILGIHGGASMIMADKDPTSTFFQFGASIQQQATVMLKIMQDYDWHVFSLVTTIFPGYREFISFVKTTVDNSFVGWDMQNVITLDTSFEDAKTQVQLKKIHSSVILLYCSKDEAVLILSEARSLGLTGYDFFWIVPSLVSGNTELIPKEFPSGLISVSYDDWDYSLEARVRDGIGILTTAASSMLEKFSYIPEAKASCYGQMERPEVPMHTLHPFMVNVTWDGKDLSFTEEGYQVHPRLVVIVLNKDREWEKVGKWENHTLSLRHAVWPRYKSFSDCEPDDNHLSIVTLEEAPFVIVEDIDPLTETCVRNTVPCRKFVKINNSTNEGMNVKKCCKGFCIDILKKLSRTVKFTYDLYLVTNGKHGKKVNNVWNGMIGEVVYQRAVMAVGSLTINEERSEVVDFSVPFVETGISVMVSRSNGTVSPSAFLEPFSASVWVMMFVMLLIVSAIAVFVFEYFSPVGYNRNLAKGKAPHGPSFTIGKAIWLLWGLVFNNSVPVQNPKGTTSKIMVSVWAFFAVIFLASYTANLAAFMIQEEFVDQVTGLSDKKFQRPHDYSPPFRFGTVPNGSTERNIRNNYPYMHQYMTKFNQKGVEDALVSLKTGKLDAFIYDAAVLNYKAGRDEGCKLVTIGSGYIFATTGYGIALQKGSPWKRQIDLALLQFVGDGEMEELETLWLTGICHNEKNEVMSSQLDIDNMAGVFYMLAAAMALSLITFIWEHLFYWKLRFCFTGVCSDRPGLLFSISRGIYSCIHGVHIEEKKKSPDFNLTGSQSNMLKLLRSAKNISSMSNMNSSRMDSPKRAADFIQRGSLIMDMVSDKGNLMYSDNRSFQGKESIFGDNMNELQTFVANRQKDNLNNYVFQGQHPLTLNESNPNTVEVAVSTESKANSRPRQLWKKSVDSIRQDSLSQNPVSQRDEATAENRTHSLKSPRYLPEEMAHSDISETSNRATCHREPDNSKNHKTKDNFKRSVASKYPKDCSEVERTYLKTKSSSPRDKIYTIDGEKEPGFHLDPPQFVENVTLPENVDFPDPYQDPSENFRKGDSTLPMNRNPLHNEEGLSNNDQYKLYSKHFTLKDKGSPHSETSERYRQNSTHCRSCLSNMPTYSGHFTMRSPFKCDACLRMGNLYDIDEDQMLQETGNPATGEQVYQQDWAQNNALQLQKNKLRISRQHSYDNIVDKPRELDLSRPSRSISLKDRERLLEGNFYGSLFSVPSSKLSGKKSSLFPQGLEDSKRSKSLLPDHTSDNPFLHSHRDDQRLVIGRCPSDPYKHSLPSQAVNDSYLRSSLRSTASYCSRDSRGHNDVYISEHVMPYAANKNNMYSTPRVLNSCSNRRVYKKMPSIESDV
T1 sequence (Q14957 20-1233, other chains not shown): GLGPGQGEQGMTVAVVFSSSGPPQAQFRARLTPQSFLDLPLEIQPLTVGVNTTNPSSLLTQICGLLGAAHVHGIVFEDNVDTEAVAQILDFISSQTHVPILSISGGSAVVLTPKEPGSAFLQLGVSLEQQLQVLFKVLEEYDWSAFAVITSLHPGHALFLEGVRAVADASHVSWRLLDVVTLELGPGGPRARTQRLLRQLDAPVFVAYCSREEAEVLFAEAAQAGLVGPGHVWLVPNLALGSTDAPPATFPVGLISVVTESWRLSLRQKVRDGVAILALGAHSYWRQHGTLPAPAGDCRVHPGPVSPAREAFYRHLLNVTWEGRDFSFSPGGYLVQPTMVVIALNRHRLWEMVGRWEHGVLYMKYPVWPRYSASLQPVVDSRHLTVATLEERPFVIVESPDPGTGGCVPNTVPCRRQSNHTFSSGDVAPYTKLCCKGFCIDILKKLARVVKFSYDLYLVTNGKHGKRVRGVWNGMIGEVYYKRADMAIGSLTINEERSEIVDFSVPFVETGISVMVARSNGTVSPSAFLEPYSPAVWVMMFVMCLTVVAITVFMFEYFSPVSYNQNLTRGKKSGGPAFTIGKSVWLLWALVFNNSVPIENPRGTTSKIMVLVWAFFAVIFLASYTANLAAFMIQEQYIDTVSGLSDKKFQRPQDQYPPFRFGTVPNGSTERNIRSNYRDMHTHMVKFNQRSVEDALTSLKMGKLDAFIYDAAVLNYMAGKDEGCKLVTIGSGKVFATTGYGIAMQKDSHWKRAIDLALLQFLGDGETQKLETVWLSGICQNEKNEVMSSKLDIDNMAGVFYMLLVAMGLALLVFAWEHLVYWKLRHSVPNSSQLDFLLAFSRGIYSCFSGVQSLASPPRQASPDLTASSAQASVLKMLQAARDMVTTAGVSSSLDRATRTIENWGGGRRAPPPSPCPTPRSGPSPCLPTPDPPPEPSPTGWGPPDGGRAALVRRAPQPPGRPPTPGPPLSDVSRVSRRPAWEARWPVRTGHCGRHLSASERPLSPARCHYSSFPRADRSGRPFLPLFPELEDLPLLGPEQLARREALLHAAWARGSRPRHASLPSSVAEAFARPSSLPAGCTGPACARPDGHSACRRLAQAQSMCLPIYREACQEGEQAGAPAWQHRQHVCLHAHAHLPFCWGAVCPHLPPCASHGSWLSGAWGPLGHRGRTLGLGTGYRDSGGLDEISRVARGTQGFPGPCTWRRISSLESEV
T2 sequence (Q12879 23-1464, other chains not shown): as the sequence (Q12879 23-1464, other chains not shown) above

With O=C(NC(=S)N1CCCCC1c1cccnc1)c1ccc(F)cc1 (centres unmarked) [CNS4] the “Increase in glycine efficacy with vs without CNS4” value ([1]; 30 μM CNS4) was 1.8 fold, the “Reduction in glutamate efficacy with vs without CNS4” value ([1]; 30 μM CNS4) was 2.1 fold and the “Glycine efficacy: relative fold change in current at highest glycine concentration” value ([1]; with 30 μM CNS4, 100 μM glutamate constant, relative to 100 nM glycine, p = .0015) was 1.77 ± 0.20 fold. For the same molecule, the “Glutamate efficacy: relative fold change in current at highest glutamate concentration” value ([1]; with 30 μM CNS4, 100 μM glycine constant, relative to 100 nM glutamate, p = .0001) was 3.93 ± 0.43 fold, the Peak current amplitude [2] was −469.3 ± 152 pA and the “Glutamate efficacy, E781A mutant compared to wild type 1/2A” value ([3]; absence of glycine, presence of CNS4, 100 μM glutamate) was ~ 34 fold. For the same molecule, the “100 μM glutamate induced relative current amplitude (glutamate efficacy)” value ([3]; absence of glycine, presence of CNS4, n = 6 (3), p = .001 vs wild type) was 1.39 ± 0.29 fold and the Glutamate efficacy ([3]; in the presence of 30 μM glycine and 30 μM CNS4, n = 5 (4), p = .11 vs wild type) was 118.5 ± 40.87.
